# Source: patent publication US12473304B2, “Heterocyclic PAD4 inhibitors” (BRISTOL-MYERS SQUIBB COMPANY, priority 2020, dated 2025)
# Biological target: human PAD4 (hPAD4) (Homo sapiens (Human), UniProt Q9UM07)
# Assay: RFMS Human PAD4 Functional Assay 1
# Type: biochemical
# Conditions: RFMS assay 1; 5 nM hPAD4, 250 μM BAEE substrate, 50 μM calcium, 37° C.
# Outline: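 Recombinant hPAD4 (5 nM) was preincubated with compound (top 50 μM, 0.5% DMSO) for 30 min at 37 °C, then reacted with 250 μM BAEE for 90 min at 37 °C in pH 7.5 HEPES buffer with 50 μM calcium and 5 μM TPEN. Product was derivatized with phenyl glyoxal and quantified by RapidFire MS.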
# human PAD4 (hPAD4), sequence (Q9UM07 whole entry): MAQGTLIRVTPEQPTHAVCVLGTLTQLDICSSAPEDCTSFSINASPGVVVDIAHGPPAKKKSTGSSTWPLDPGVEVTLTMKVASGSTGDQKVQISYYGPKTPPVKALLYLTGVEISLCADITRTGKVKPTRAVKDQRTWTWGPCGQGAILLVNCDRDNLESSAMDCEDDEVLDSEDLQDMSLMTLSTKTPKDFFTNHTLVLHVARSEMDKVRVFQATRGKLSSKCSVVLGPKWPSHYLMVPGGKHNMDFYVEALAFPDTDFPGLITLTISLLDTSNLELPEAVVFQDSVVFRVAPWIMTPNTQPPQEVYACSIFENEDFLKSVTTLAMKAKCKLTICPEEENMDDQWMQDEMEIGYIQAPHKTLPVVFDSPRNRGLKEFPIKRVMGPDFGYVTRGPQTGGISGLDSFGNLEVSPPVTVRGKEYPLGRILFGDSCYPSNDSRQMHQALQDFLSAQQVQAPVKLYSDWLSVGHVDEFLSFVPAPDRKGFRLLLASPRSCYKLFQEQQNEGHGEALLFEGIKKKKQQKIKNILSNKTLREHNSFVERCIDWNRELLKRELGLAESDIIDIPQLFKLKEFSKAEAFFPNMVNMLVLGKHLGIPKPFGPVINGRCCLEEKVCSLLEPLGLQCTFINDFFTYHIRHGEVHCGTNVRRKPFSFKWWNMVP
row,SMILES,IC50
1,"COc1cc(C(=O)N2C[C@H](N)C[C@@H](F)C2)cn2nc(-c3cc4cccc(C5CN(C(=O)C(C)(C)OC)C5)c4n3CC3CC3)c(C)c12 [Example 518, 1-(3-(2-(6-((3R,5R)-3-Amino-5-fluoropiperidine-1-carbonyl)-4-methoxy-3-methylpyrazolo[1,5-a]pyridin-2-yl)-1-(cyclopropylmethyl)-1H-indol-7-yl)azetidin-1-yl)-2-methoxy-2-methylpropan-1-one]",260 nM
2,"COc1cc(C(=O)N2C[C@H](N)C[C@@H](F)C2)cn2nc(-c3cc4cccc(C5CN(C(=O)[C@H]6CC[C@@H](O)CC6)C5)c4n3CC3CC3)c(C)c12 [Example 519, ((3R,5R)-3-Amino-5-fluoropiperidin-1-yl)(2-(1-(cyclopropylmethyl)-7-(1-((1s,4s)-4-hydroxycyclohexane-1-carbonyl)azetidin-3-yl)-1H-indol-2-yl)-4-methoxy-3-methylpyrazolo[1,5-a]pyridin-6-yl)methanone]",40 nM
3,"COc1cc(C(=O)N2CCC[C@@H](N)C2)cn2nc(-c3cc4cccc(C5CN(C(=O)[C@H]6CC[C@@H](O)CC6)C5)c4n3CC3CC3)c(C)c12 [Example 520, ((R)-3-Aminopiperidin-1-yl)(2-(1-(cyclopropylmethyl)-7-(1-((1s,4s)-4-hydroxycyclohexane-1-carbonyl)azetidin-3-yl)-1H-indol-2-yl)-4-methoxy-3-methylpyrazolo[1,5-a]pyridin-6-yl)methanone]",220 nM
4,"COc1cc(C(=O)N2CCC[C@@H](N)C2)cn2nc(-c3cc4cccc(C5CN(C(=O)[C@H](C)OC)C5)c4n3CC3CC3)c(C)c12 [Example 523, (S)-1-(3-(2-(6-((R)-3-Aminopiperidine-1-carbonyl)-4-methoxy-3-methylpyrazolo[1,5-a]pyridin-2-yl)-1-(cyclopropylmethyl)-1H-indol-7-yl)azetidin-1-yl)-2-methoxypropan-1-one]",400 nM
5,"COc1cc(C(=O)N2C[C@H](N)C[C@@H](F)C2)cn2nc(-c3cc4cccc(C5CN(C(=O)[C@H](C)OC)C5)c4n3CC3CC3)c(C)c12 [Example 524, (S)-1-(3-(2-(6-((3R,5R)-3-Amino-5-fluoropiperidine-1-carbonyl)-4-methoxy-3-methylpyrazolo[1,5-a]pyridin-2-yl)-1-(cyclopropylmethyl)-1H-indol-7-yl)azetidin-1-yl)-2-methoxypropan-1-one]",280 nM
6,"COc1cc(C(=O)N2CCC[C@@H](N)C2)cn2nc(-c3cc4cccc(C5CN(C(=O)[C@@H](C)OC)C5)c4n3CC3CC3)c(C)c12 [Example 525, (R)-1-(3-(2-(6-((R)-3-Aminopiperidine-1-carbonyl)-4-methoxy-3-methylpyrazolo[1,5-a]pyridin-2-yl)-1-(cyclopropylmethyl)-1H-indol-7-yl)azetidin-1-yl)-2-methoxypropan-1-one]",90 nM
7,"COc1cc(C(=O)N2C[C@H](N)C[C@@H](F)C2)cn2nc(-c3cc4cccc(C5CN(C(=O)[C@@H](C)OC)C5)c4n3CC3CC3)c(C)c12 [Example 526, (R)-1-(3-(2-(6-((3R,5R)-3-Amino-5-fluoropiperidine-1-carbonyl)-4-methoxy-3-methylpyrazolo[1,5-a]pyridin-2-yl)-1-(cyclopropylmethyl)-1H-indol-7-yl)azetidin-1-yl)-2-methoxypropan-1-one]",260 nM
8,"COCC(=O)N1CC(c2cccc3cc(-c4nn5cc(C(=O)N6C[C@H](N)C[C@@H](F)C6)cc(OC)c5c4C)n(CC4CC4)c23)C1 [Example 527, 1-(3-(2-(6-((3R,5R)-3-Amino-5-fluoropiperidine-1-carbonyl)-4-methoxy-3-methylpyrazolo[1,5-a]pyridin-2-yl)-1-(cyclopropylmethyl)-1H-indol-7-yl)azetidin-1-yl)-2-methoxyethan-1-one]",50 nM
9,"COCC(=O)N1CC(c2cccc3cc(-c4nn5cc(C(=O)N6CCC[C@@H](N)C6)cc(OC)c5c4C)n(CC4CC4)c23)C1 [Example 528, (R)-1-(3-(2-(6-(3-Aminopiperidine-1-carbonyl)-4-methoxy-3-methylpyrazolo[1,5-a]pyridin-2-yl)-1-(cyclopropylmethyl)-1H-indol-7-yl)azetidin-1-yl)-2-methoxyethan-1-one]",15000 nM
10,"COCC(=O)N1CC(c2cccc3cc(-c4nn5cc(C(=O)N6CCC[C@@H](N)C6)cc(OC)c5c4C)n(CC4CC4)c23)C1 [Example 529, (R)-1-(3-(2-(6-(3-Aminopiperidine-1-carbonyl)-4-methoxy-3-methylpyrazolo[1,5-a]pyridin-2-yl)-1-(cyclopropylmethyl)-1H-indol-7-yl)azetidin-1-yl)-2-methoxyethan-1-one]",1530 nM
11,"Cc1c(-c2cc3cccc(C4CN(C(=O)[C@H]5CC[C@H](O)CC5)C4)c3n2CC2CC2)nn2cc(C(=O)N3CCC[C@@H](N)C3)ccc12 [Example 530, ((R)-3-Aminopiperidin-1-yl)(2-(1-(cyclopropylmethyl)-7-(1-((1r,4r)-4-hydroxycyclohexane-1-carbonyl)azetidin-3-yl)-1H-indol-2-yl)-3-methylpyrazolo[1,5-a]pyridin-6-yl)methanone]",30 nM
12,"Cc1c(-c2cc3cccc(C4CN(C(=O)[C@@H]5CCC[C@H](O)C5)C4)c3n2CC2CC2)nn2cc(C(=O)N3C[C@H](N)C[C@@H](F)C3)ccc12 [Example 531, ((3R,5R)-3-Amino-5-fluoropiperidin-1-yl)(2-(1-(cyclopropylmethyl)-7-(1-((1R,3S)-3-hydroxycyclohexane-1-carbonyl)azetidin-3-yl)-1H-indol-2-yl)-3-methylpyrazolo[1,5-a]pyridin-6-yl)methanone]",580 nM
13,"Cc1c(-c2cc3cccc(C4CN(C(=O)[C@@H]5CCC[C@H](O)C5)C4)c3n2CC2CC2)nn2cc(C(=O)N3CCC[C@@H](N)C3)ccc12 [Example 532, ((R)-3-Aminopiperidin-1-yl)(2-(1-(cyclopropylmethyl)-7-(1-((1R,3S)-3-hydroxycyclohexane-1-carbonyl)azetidin-3-yl)-1H-indol-2-yl)-3-methylpyrazolo[1,5-a]pyridin-6-yl)methanone]",1010 nM
14,"Cc1c(-c2cc3cccc(C4CN(C(=O)[C@H]5CCC[C@@H](O)C5)C4)c3n2CC2CC2)nn2cc(C(=O)N3C[C@H](N)C[C@@H](F)C3)ccc12 [Example 533, ((3R,5R)-3-Amino-5-fluoropiperidin-1-yl)(2-(1-(cyclopropylmethyl)-7-(1-((1S,3R)-3-hydroxycyclohexane-1-carbonyl)azetidin-3-yl)-1H-indol-2-yl)-3-methylpyrazolo[1,5-a]pyridin-6-yl)methanone]",520 nM
15,"Cc1c(-c2cc3cccc(C4CN(C(=O)[C@H]5CCC[C@@H](O)C5)C4)c3n2CC2CC2)nn2cc(C(=O)N3CCC[C@@H](N)C3)ccc12 [Example 534, ((R)-3-Aminopiperidin-1-yl)(2-(1-(cyclopropylmethyl)-7-(1-((1S,3R)-3-hydroxycyclohexane-1-carbonyl)azetidin-3-yl)-1H-indol-2-yl)-3-methylpyrazolo[1,5-a]pyridin-6-yl)methanone]",440 nM
16,"COC(C)(C)C(=O)N1CC(c2cccc3cc(-c4nn5cc(C(=O)N6CCC[C@@H](N)C6)ccc5c4C)n(CC4CC4)c23)C1 [Example 536, (R)-1-(3-(2-(6-(3-Aminopiperidine-1-carbonyl)-3-methylpyrazolo[1,5-a]pyridin-2-yl)-1-(cyclopropylmethyl)-1H-indol-7-yl)azetidin-1-yl)-2-methoxy-2-methylpropan-1-one]",2520 nM
